Patent publication US20150190369A1, “QUERCETIN-3-GLUCOSIDE AND USES THEREOF” (priority 2012, published 2015)
“Also recorded” adds a separate entry of the source.

Legend:
SREBP-2 mRNA = assay: Quantitative RT-PCR for proSREBP-2 mRNA in Huh7 cells; format: cell-based, human; conditions: Huh7, 24 h, 5 μM Q3G
Experimental: FIGS. 9A and 9B are graphs illustrating the proSREBPs-2 mRNA and SREBP-2-related protein levels for cells exposed to Q3G. Cells were incubated for 24 h in medium 5 μM Q3G. FIG. 9A illustrates the results for quantitative RT-PCR for proSREBPs-2 mRNA levels. Values are the means of triplicate experiments±SEM. FIG. 9B illustrates the results for semi-quantitative immunoblotting for cellular SREBP-2-related protein. Mat/Prec values, the averages of two experiments, represent density ratios of the 65-kDa SREBP over the 158-kDa proSREBPs after normalization for β-actin.
At passage, Huh7 cells were routinely seeded at sub-confluence (˜10^6 cells/10-cm dish) in Dulbecco's modified Eagle's medium (DMEM) containing 10% fetal bovine serum (FBS) or LPDS (for experiments) and 50 μg/ml gentamycin. They were incubated overnight at 37° C., in a humidified 5% CO2-95% air atmosphere. Cells were treated or not with Q3G at defined concentrations and for defined lengths of time. Media were collected and centrifuged at 200 g for 5 min to sediment suspended cells; supernatants were collected and supplemented with 0.33 volumes of a 3×-concentrated PIC. […]
(§1) Standard curves were established using varying amounts of purified and quantified cDNA amplicons of each mRNA. […]

PCSK9 [1] = assay: ELISA for PCSK9 secreted into medium by MIN6 β-cells; format: cell-based, mouse; conditions: MIN6, 24 h, different concentrations of Q3G
Experimental: FIG. 15 a graph illustrating the effect of exposure to Q3G on PCSK9 secretion in MIN6 β-cells. MIN6 cells were incubated for 24 h in the presence of the specified concentration of Q3G. Media were collected and assayed by ELISA for PCSK9 content.
(§2) Mouse insulinoma MIN6 cells were cultured in a 5% CO2-95% air atmosphere at 37° C. in DMEM medium containing 10% heat-inactivated fetal bovine serum, 1 mM Na-pyruvate, 2 mM L-glutamine, 25 mM D-glucose, and 28 μM β-mercaptoethanol. Q3G at a specific final concentration was supplemented to the culture medium and incubation was conducted for a selected length of time. Media were collected, spun at 600 g to sediment suspended cells, supplemented with 0.5 volumes of 3×RIPA-PIC (1×: 50 mM Tris-HCl, pH 8, 150 mM NaCl, 1% NP-40, 0.5% Na-deoxycholate and 0.1% SDS and PIC). Cells were lysed in 1×RIPA-PIC for immuno-blotting, or in RNA extraction buffer for qRT-PCR.
The assays for PCSK9 and insulin were conducted as prescribed by kit manufacturers, using a Thermo Scientific plate reader. For example, PCSK9 levels in conditioned media were measured using the human PCSK9 ELISA kit from Circulex, as specified the manufacturer. […] After 15 min, the reaction was stopped with […] and the absorbance of the reaction mixtures measured by spectrophotometry at 450 nm. […]

PCSK9 [2] = assay: ELISA for secreted PCSK9 in conditioned media of Huh7 cells; format: cell-based, human; conditions: Huh7, 24 h
Experimental: Media were collected and PCSK9 levels therein were determined by ELISA.
At passage, Huh7 cells were routinely seeded at sub-confluence (˜10^6 cells/10-cm dish) in Dulbecco's modified Eagle's medium (DMEM) containing 10% fetal bovine serum (FBS) or LPDS (for experiments) and 50 μg/ml gentamycin. They were incubated overnight at 37° C., in a humidified 5% CO2-95% air atmosphere. Cells were treated or not with Q3G at defined concentrations and for defined lengths of time. Media were collected and centrifuged at 200 g for 5 min to sediment suspended cells; supernatants were collected and supplemented with 0.33 volumes of a 3×-concentrated PIC. Cell monolayers were rinsed with ice-cold phosphate-buffered saline (PBS); they were overlaid with 0.5 of the RIPA lysis buffer (50 mM Tris-HCl, pH 8, 150 mM NaCl, 1% NP-40, 0.5% Na-deoxycholate and 0.1% SDS) supplemented with 1× PIC. After 20 min in an ice bath, the lysates were centrifuged at 14,000 g and 4° C. for 20 min, and supernatants were collected. Conditioned media and lysates were stored at −20° C. until analysis.
The assays for PCSK9 and insulin were conducted as prescribed by kit manufacturers, using a Thermo Scientific plate reader. For example, PCSK9 levels in conditioned media were measured using the human PCSK9 ELISA kit from Circulex, as specified the manufacturer. The assay was a sandwich immunoassay using two antibodies (A and B) recognizing different PCSK9 epitopes. Briefly, aliquot of diluted media were overlaid on wells coated with anti-PCSK9 antibody A. After 1-h incubation, the wells were washed, overlaid with a solution of HRP-conjugated anti-PCSK9 antibody B, and incubated for 1 h. They were washed again, and overlaid with a solution of tetra-methylbenzidine as a chromogenic substrate for HRP. After 15 min, the reaction was stopped with ammonium sulfate and the absorbance of the reaction mixtures measured by spectrophotometry at 450 nm. All the steps were performed at room temperature. Standards consisted of recombinant human PCSK9.

ABCA1 mRNA = assay: qRT-PCR for ABCA1 mRNA in MIN6 β-cells; format: cell-based, mouse; conditions: MIN6, 24 h
Experimental: as §2
For the mouse studies, the levels of specific mRNAs were quantified in a PCR-based fluorogenic assay using the Taqman technology (Holland et al., 1991). Briefly, total RNA was extracted using the RNeasy extraction kit and reverse-transcribed into cDNA using random hexameric primers and the Superscript II RNase H-Reverse Transcriptase. […] Standard curves were established using varying amounts of pre-quantified amplicons of each transcript. […]
MIN6 β-cells were incubated for 24 h in the presence of different concentrations of Q3G. Total RNA was extracted and analyzed by qRT-PCR for the levels of mRNA for PCSK9, LDLR, ABCA1 and ABCG1.

PCSK9 mRNA = assay: Quantitative RT-PCR for PCSK9 mRNA in Huh7 cells; format: cell-based, human; conditions: Huh7, 24 h, highest Q3G concentration tested (0 to 10 μM)
Experimental: At passage, Huh7 cells were routinely seeded at sub-confluence (˜10^6 cells/10-cm dish) in Dulbecco's modified Eagle's medium (DMEM) containing 10% fetal bovine serum (FBS) or LPDS (for experiments) and 50 μg/ml gentamycin. They were incubated overnight at 37° C., in a humidified 5% CO2-95% air atmosphere. Cells were treated or not with Q3G at defined concentrations and for defined lengths of time. Media were collected and centrifuged at 200 g for 5 min to sediment suspended cells; supernatants were collected and supplemented with 0.33 volumes of a 3×-concentrated PIC. Cell monolayers were rinsed with ice-cold phosphate-buffered saline (PBS); they were overlaid with […] the RIPA lysis buffer (50 mM Tris-HCl, pH 8, 150 mM NaCl, 1% NP-40, 0.5% Na-deoxycholate and 0.1% SDS) supplemented with 1× PIC. After 20 min in an ice bath, the lysates were centrifuged at 14,000 g and 4° C. for 20 min, and supernatants were collected. Conditioned media and lysates were stored at −20° C. until analysis.
Total RNA was extracted using the Qiagen RNeasy extraction kit. It was reverse transcribed into cDNA using random hexameric primers and the Superscript II RNase H-Reverse Transcriptase. […]
as §1

O=c1c(O[C@@H]2O[C@H](CO)[C@@H](O)[C@H](O)[C@H]2O)c(-c2ccc(O)c(O)c2)oc2cc(O)cc(O)c12 [Q3G, quercetin-3-O-β-D-glucoside]
effect on level of SREBP-2 mRNA (SREBP-2 mRNA): no effect
PCSK9 in the medium (secretion) (PCSK9 [1]): paralleled that of the transcript; also recorded: stimulates
level of PCSK9 in spent media (PCSK9 [2]; co-treatment 5 μM Q3G with simvastatin 0.2 and 1 μM, versus simvastatin alone): reducing
decrease of PCSK9 in conditioned media (PCSK9 [2]; highest Q3G concentration tested (0 to 10 μM)): 35%
effect on ABCA1 mRNA levels (ABCA1 mRNA; Q3G 8 mM and above): reducing
increase of ABCA1 mRNA levels (ABCA1 mRNA; Q3G up to 4 mM): about 50%
decrease of PCSK9 mRNA levels (PCSK9 mRNA): one-third
